Experimental data taken from PubChem BioAssay AID179 (DTP/NCI, 2004).
Active and inactive are the calls of the source.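 How the source made its calls: active means compounds giving half or more protection of infected cells from virus-caused growth loss, again on retest; inactive means the rest.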 Where a SMILES comes first, the peptide text is derived from it. [ ]: non-standard residue; d: D form. The star is where a group is joined. ξ: configuration not given here. NMeF = CN[CH](Cc1ccccc1)C(=O)O; ξNMe2Val = CC(C)C(C(=O)*)N(C)C; NMeV = CN[CH](C(=O)O)C(C)C; OtBu = CC(C)(C)O*

System: CEM cells HIV-1 protection, formazan growth assay
Experiment: NCI AIDS Antiviral Assay
Settings: for IC50: measured here: growth of uninfected CEM cells
Method in brief: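 Five concentrations of each compound were applied to infected and uninfected human CEM cells. Protection from HIV-1 was judged from growth measured with a soluble formazan assay.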

| Structure (SMILES) | EC50 [µM] | IC50 [µM] | outcome |
| --- | --- | --- | --- |
| CS(=O)(=O)NNS(=O)(=O)c1ccccc1 | > 75.9 | > 75.9 |  |
| O=C(SCc1c(O)c2ccccc2oc1=O)c1ccccc1 | > 200 | 67.6 |  |
| CC1=C(c2ccc(C)cc2)NC(=S)C(C)C(c2ccc(C)cc2)=N1 (stereo not given) | > 200 | 97.7 |  |
| COC[C@@H](N=CN1CCc2cc(OC)c(OC)cc2[C@@H]1C)C(C)(C)C | > 513 | 490 |  |
| O=[N+]([O-])c1ccc(S(=O)(=O)N/N=C/c2ccco2)cc1 | > 316 | 166 |  |
| C1#CCCCCCCC#CCCCCC1.[C-]#[O+].[C-]#[O+].[C-]#[O+].[C-]#[O+].[C-]#[O+].[C-]#[O+].[C-]#[O+].[C-]#[O+].[C-]#[O+].[C-]#[O+].[C-]#[O+].[C-]#[O+].[Co].[Co].[Co].[Co] | > 2.57 | > 2.57 |  |
| N#CC1=C(O)NC(O)=C(C#N)C1c1ccc(Cl)cc1Cl | > 17 | > 17 |  |
| CNC(=S)Nc1sc2c(c1C#N)CCCC2 | 148 | 151 |  |
| O=[N+]([O-])c1ccc(/C=C/c2csnn2)cc1 | > 562 | 229 |  |
| C[C@H]1C(=O)CC[C@]2(C)CCC(C(C)(C)O)CC12O (stereo not given in full) |  |  | inactive |
| CCOC(=O)CCNC(=O)Sc1ccccc1C(=O)NCCC(N)=O | 1.2 | 110 |  |
| COc1ccc(C2CC(=O)c3ccccc3O2)cc1 (stereo not given) | > 200 | 97.7 |  |
| N=C(N)c1ccc2oc3ccc(C(=N)N)cc3c(=O)c2c1 |  |  | inactive |
| O=C1C=Cc2ncccc2C1=O | > 1580 | 5.5 |  |
| O=C1C(Cl)=C(Cl)C(=O)N1c1c(F)c(F)c(F)c(F)c1F |  |  | inactive |
| O=C1c2ccccc2C(=O)c2c1c(-c1ccccc1)cc(CCO)c2-c1ccccc1 |  |  | inactive |
| O/N=C1\CCc2cc3c(cc21)CCC3 | > 200 | 155 |  |
| CC1(C)CC(=O)C(CCC(=O)/C=C/c2ccccc2)C(=O)C1 | > 87.1 | > 87.1 |  |
| O=C1N=CN=C2C=CC(Cl)=C(I)C12 (stereo not given) | > 85.1 | > 85.1 |  |
| Nc1nc(Cl)cc(OCC2(CO)CC2)n1 | > 200 | > 200 |  |
| CC1=C2CC[C@]2(C)[C@]23OCC(C)(CC2C1=O)C3O (stereo not given in full) |  |  | inactive |
| Cn1c(N)c(/C=C/C(=O)Oc2ccccc2)c(=O)n(C)c1=O |  |  | inactive |
| O=[N+]([O-])c1ccc(S(=O)(=O)N/N=C/c2cccc3ccccc23)cc1 | > 51.3 | > 51.3 |  |

| Structure (SMILES) | EC50 [µM] | IC50 [µM] | outcome |
| --- | --- | --- | --- |
| O=c1[nH]c2ccccc2c(=O)n1/N=C/c1ccc(Cl)cc1 | > 200 | > 200 |  |
| CC(CNC(=O)c1ccccc1)(CNC(=O)c1ccccc1)[N+](=O)[O-] |  |  | inactive |
| COc1ccc(/C(C)=N/NC(N)=S)c(OC)c1 |  |  | inactive |
| COC(=O)C1Cc2c(C)cccc2C1=O (stereo not given) | > 200 | 110 |  |
| Cn1c(=O)cc(C=Nc2ccc(N=Nc3ccccc3)cc2)c2ccccc21 | > 200 | 1.51 |  |
| COc1ccc(C2CC(=O)c3c(O)cc(O)cc3O2)cc1O (stereo not given) | > 832 | 74.1 |  |
| CN(C)C(=O)OC(Cn1cncn1)(Cn1cncn1)c1ccc(Cl)cc1Cl | > 200 | > 200 |  |
| c1ccc(P2(c3ccccc3)=NSN=S=N2)cc1 | > 200 | 74.1 |  |
| CC(=O)NNc1nc(C)c(C(=O)NNC(=O)C(=O)Nc2ccc(Cl)cc2)s1 |  |  | inactive |
| COC(=O)C1(C(=O)OC)C2(CCCC2)C1(C(=O)OC)C(=O)OC | > 200 | > 200 |  |
| Brc1cnc2nsnc2c1 |  |  | inactive |
| N/N=C(\Cc1ccccc1)NN=C(N)N | > 457 | 389 |  |
| O=c1c2ccccc2nc(-c2ccccc2)n1NC(=S)Nc1ccc(Cl)cc1[N+](=O)[O-] | > 15.8 | > 15.8 |  |
| c1ccc2sc(SCN3CCCCC3)nc2c1 | > 200 | 81.3 |  |
| COc1cccc(C2c3cc4c(cc3OC(N3CCCC3)C2C)OCO4)c1OC (stereo not given) | > 200 | 1.41 |  |
| COc1ccccc1NC(=O)C1=C(C)NC(C)=C(C(=O)Nc2ccccc2OC)C1c1ccccc1[N+](=O)[O-] | > 13.5 | > 13.5 |  |
| O=C1CSC(C(N=Nc2ccc(Cl)cc2)c2nc3ccccc3[nH]2)=N1 (stereo not given) | > 1.95 | > 1.95 |  |
| COC(=O)/C(=N/Nc1cccc(Cl)c1)C(C(=O)C(=O)Nc1cccc(Cl)c1C)c1nc2ccccc2nc1C (stereo not given) | > 12.9 | > 12.9 |  |
| CC(C)C(C(=O)N(C)C(Cc1ccccc1)C(=O)N(C)C(C(=O)N(C)C(C(=O)N1CCCC1C(=O)OC(C)(C)C)C(C)C)C(C)C)N(C)C (stereo not given) (ξNMe2Val-[NMeF][NMeV][NMeV]P-OtBu; configuration not given here) | 24.5 | 110 |  |
| O=C(NCCCCCCCCNC(=O)c1cc(-c2ccccc2)nc2ccccc12)c1cc(-c2ccccc2)nc2ccccc12 | > 200 | > 200 |  |
| CC(C)=CC(=O)CC(=O)C(=O)NCCNC(=O)C(=O)CC(=O)C=C(C)C | > 2.09 | > 2.09 |  |
| O=C(O)c1ccc(S(=O)(=O)c2ccc(C(=O)O)c(C(=O)O)c2)cc1C(=O)O | > 200 | 191 |  |
